# Test results published in patent publication US20240409585A1, “MACROCYCLIC IMMUNOMODULATORS” (priority 2021, published 2024).
# Bridge positions count the residues as written; N and C are the ends. Square brackets hold non-standard residues; d marks the D form. Peptide text beside a SMILES is read from it. * marks the point of attachment. ξ: configuration not given here. Phe(4-COOH) = N[C@@H](Cc1ccc(C(=O)O)cc1)C(=O)O; Bip = N[C@@H](Cc1ccc(-c2ccccc2)cc1)C(=O)O; Phe(3-CN) = N#Cc1cccc(C[C@H](N)C(=O)O)c1; Phe(4-CN) = N#Cc1ccc(C[C@H](N)C(=O)O)cc1; 3Pal = N[C@@H](Cc1cccnc1)C(=O)O; 4Pal = N[C@@H](Cc1ccncc1)C(=O)O; Cit = NC(=O)NCCC[C@H](N)C(=O)O; ξIle = CC[C@H](C)C(N)C(=O)O; Pip = O=C(O)[C@@H]1CCCCN1; Carboxymethyl = O=C(O)C*; NMeA = CN[C@@H](C)C(=O)O; Orn = NCCC[C@H](N)C(=O)O; Dab = NCC[C@H](N)C(=O)O
# Biological target: T1, PE-labeled human PD-L1-Ig binding to Jurkat cell line over-expressing human PD-1 (Jurkat-PD-1) (Homo sapiens, UniProt Q15116)
# T1 construct: expressed in transfected cells; host or cells: Jurkat
# T1 sequence (Q15116 25-288): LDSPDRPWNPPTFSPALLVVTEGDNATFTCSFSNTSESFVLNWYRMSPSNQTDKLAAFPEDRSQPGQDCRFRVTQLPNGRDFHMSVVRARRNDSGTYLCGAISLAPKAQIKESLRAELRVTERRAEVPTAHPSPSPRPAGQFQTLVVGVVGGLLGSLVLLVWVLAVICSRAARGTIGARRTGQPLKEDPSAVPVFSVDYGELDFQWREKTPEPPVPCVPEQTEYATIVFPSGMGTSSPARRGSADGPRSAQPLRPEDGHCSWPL
# Experiment: Jurkat-PD-1 Cell Binding High-Content Screening Assay (CBA): Method 1
# Conditions: Jurkat-hPD-1 cells, PE-labeled PD-L1-Ig 20 nM final; read-out: Jurkat HPDL1 PD1 IC50 (uM) (Method 1)
row,SMILES,IC50
1,CC(C)C[C@@H]1NC(=O)[C@H](CCN)NC(=O)[C@@H](CC(C)C)NC(=O)[C@H](C)N(C)C(=O)[C@H](CCCN)NC(=O)[C@H](Cc2ccc(-c3ccccc3)cc2)NC(=O)[C@H](C(C)C)NC(=O)[C@H](Cc2c[nH]c3ccccc23)NC(=O)[C@H](CC(=O)O)NC(=O)[C@H](Cc2ccc(OCC(=O)O)cc2)NC(=O)[C@H](CC(N)=O)NC(=O)CSC[C@@H](C(=O)N[C@@H](C)C(N)=O)NC(=O)[C@H]([C@@H](C)O)NC(=O)[C@H](C(C)C)NC1=O [Compound 1387] ({CH2CO}-NY(Carboxymethyl)DWV[Bip][Orn][NMeA][dL][Dab]LVTCA-NH2; thioether N-14),0.03 µM
2,CC(C)C[C@@H]1NC(=O)[C@H](CCN)NC(=O)[C@@H](CC(C)C)NC(=O)[C@H](C)N(C)C(=O)[C@H](Cc2cnc[nH]2)NC(=O)[C@H](Cc2ccc(-c3ccccc3)cc2)NC(=O)[C@H](C(C)C)NC(=O)[C@H](Cc2c[nH]c3ccccc23)NC(=O)[C@H](CC(=O)O)NC(=O)[C@H](Cc2ccc(OCC(=O)O)cc2)NC(=O)[C@H](CC(N)=O)NC(=O)CSC[C@@H](C(=O)N[C@@H](C)C(N)=O)NC(=O)[C@H]([C@@H](C)O)NC(=O)[C@H](C(C)C)NC1=O [Compound 1388] ({CH2CO}-NY(Carboxymethyl)DWV[Bip]H[NMeA][dL][Dab]LVTCA-NH2; thioether N-14),0.06 µM
3,CC(C)C[C@@H]1NC(=O)[C@H](CCN)NC(=O)[C@@H](CC(C)C)NC(=O)[C@H](C)N(C)C(=O)[C@H](CCC(=O)O)NC(=O)[C@H](Cc2ccc(-c3ccccc3)cc2)NC(=O)[C@H](C(C)C)NC(=O)[C@H](Cc2c[nH]c3ccccc23)NC(=O)[C@H](CC(=O)O)NC(=O)[C@H](Cc2ccc(C(=O)O)cc2)NC(=O)[C@H](CC(N)=O)NC(=O)CSC[C@@H](C(=O)N[C@@H](C)C(N)=O)NC(=O)[C@H]([C@@H](C)O)NC(=O)[C@H](C(C)C)NC1=O [Compound 1389] ({CH2CO}-N[Phe(4-COOH)]DWV[Bip]E[NMeA][dL][Dab]LVTCA-NH2; thioether N-14),0.03 µM
4,CC(C)C[C@@H]1NC(=O)[C@H](CCN)NC(=O)[C@@H](CC(C)C)NC(=O)[C@H](C)N(C)C(=O)[C@H](CCC(=O)O)NC(=O)[C@H](Cc2ccc(-c3ccccc3)cc2)NC(=O)[C@H](C(C)C)NC(=O)[C@H](Cc2c[nH]c3ccccc23)NC(=O)[C@H](CC(=O)O)NC(=O)[C@H](Cc2ccc(OCC(=O)O)cc2)NC(=O)[C@H](CC(N)=O)NC(=O)CSC[C@@H](C(=O)N[C@@H](C)C(N)=O)NC(=O)[C@H]([C@@H](C)O)NC(=O)[C@H](C(C)C)NC1=O [Compound 1390] ({CH2CO}-NY(Carboxymethyl)DWV[Bip]E[NMeA][dL][Dab]LVTCA-NH2; thioether N-14),0.11 µM
5,CC[C@H](C)[C@@H]1NC(=O)[C@H](Cc2ccc(-c3ccccc3)cc2)NC(=O)[C@H](C(C)C)NC(=O)[C@H](Cc2c[nH]c3ccccc23)NC(=O)[C@H](CC(=O)O)NC(=O)[C@H](Cc2ccc(O)cc2)NC(=O)[C@H](CCC(N)=O)NC(=O)CSC[C@@H](C(=O)N[C@@H](C)C(N)=O)NC(=O)[C@H]([C@@H](C)O)NC(=O)[C@H](C(C)C)NC(=O)[C@H](CC(C)C)NC(=O)[C@H](CCN)NC(=O)[C@@H](CC(C)C)NC(=O)[C@H](C)N(C)C1=O [Compound 1391] ({CH2CO}-QYDWV[Bip]I[NMeA][dL][Dab]LVTCA-NH2; thioether N-14),0.03 µM
6,CC[C@H](C)[C@@H]1NC(=O)[C@H](Cc2ccc(-c3ccccc3)cc2)NC(=O)[C@H](C(C)C)NC(=O)[C@H](Cc2c[nH]c3ccccc23)NC(=O)[C@H](CC(=O)O)NC(=O)[C@H](Cc2ccc(O)cc2)NC(=O)[C@H](CC(C)C)NC(=O)CSC[C@@H](C(=O)N[C@@H](C)C(N)=O)NC(=O)[C@H]([C@@H](C)O)NC(=O)[C@H](C(C)C)NC(=O)[C@H](CC(C)C)NC(=O)[C@H](CCN)NC(=O)[C@@H](CC(C)C)NC(=O)[C@H](C)N(C)C1=O [Compound 1392] ({CH2CO}-LYDWV[Bip]I[NMeA][dL][Dab]LVTCA-NH2; thioether N-14),0.04 µM
7,CC[C@H](C)[C@@H]1NC(=O)[C@H](Cc2ccc(-c3ccccc3)cc2)NC(=O)[C@H](C(C)C)NC(=O)[C@H](Cc2c[nH]c3ccccc23)NC(=O)[C@H](CC(=O)O)NC(=O)[C@H](Cc2ccc(O)cc2)NC(=O)[C@H](Cc2ccccc2)NC(=O)CSC[C@@H](C(=O)N[C@@H](C)C(N)=O)NC(=O)[C@H]([C@@H](C)O)NC(=O)[C@H](C(C)C)NC(=O)[C@H](CC(C)C)NC(=O)[C@H](CCN)NC(=O)[C@@H](CC(C)C)NC(=O)[C@H](C)N(C)C1=O [Compound 1393] ({CH2CO}-FYDWV[Bip]I[NMeA][dL][Dab]LVTCA-NH2; thioether N-14),0.03 µM
8,CC(C)C[C@@H]1NC(=O)[C@H](CCN)NC(=O)[C@@H](CC(C)C)NC(=O)[C@H](C)N(C)C(=O)[C@H](C(C)C)NC(=O)[C@H](Cc2ccc(-c3ccccc3)cc2)NC(=O)[C@H](C(C)C)NC(=O)[C@H](Cc2c[nH]c3ccccc23)NC(=O)[C@H](CC(=O)O)NC(=O)[C@H](Cc2ccc(O)cc2)NC(=O)[C@H](CCCNC(=N)N)NC(=O)CSC[C@@H](C(=O)N[C@@H](C)C(N)=O)NC(=O)[C@H]([C@@H](C)O)NC(=O)[C@H](C(C)C)NC1=O [Compound 1394] ({CH2CO}-RYDWV[Bip]V[NMeA][dL][Dab]LVTCA-NH2; thioether N-14),0.01 µM
9,CC[C@H](C)C1NC(=O)[C@H](Cc2ccc(-c3ccccc3)cc2)NC(=O)[C@H](C(C)C)NC(=O)[C@H](Cc2c[nH]c3ccccc23)NC(=O)[C@H](CC(=O)O)NC(=O)[C@H](Cc2ccc(C(=O)O)cc2)NC(=O)[C@H](CC(N)=O)NC(=O)CSC[C@@H](C(=O)N[C@@H](C)C(N)=O)NC(=O)[C@H]([C@@H](C)O)NC(=O)[C@H](C(C)C)NC(=O)[C@H](CC(C)C)NC(=O)[C@H](CCN)NC(=O)[C@@H](CC(C)C)NC(=O)[C@H](C)N(C)C1=O (stereo partly drawn) [Compound 1395] ({CH2CO}-N[Phe(4-COOH)]DWV[Bip][ξIle][NMeA][dL][Dab]LVTCA-NH2; thioether N-14),0.02 µM

# The remaining lines, values ahead:
row,IC50,SMILES
1,0.01 µM,CC[C@H](C)[C@@H]1NC(=O)[C@H](Cc2ccc(-c3ccccc3)cc2)NC(=O)[C@H](C(C)C)NC(=O)[C@H](Cc2c[nH]c3ccccc23)NC(=O)[C@H](CC(=O)O)NC(=O)[C@H](Cc2ccc(OCC(=O)O)cc2)NC(=O)[C@H](CC(N)=O)NC(=O)CSC[C@@H](C(=O)N[C@@H](C)C(N)=O)NC(=O)[C@H]([C@@H](C)O)NC(=O)[C@H](C(C)C)NC(=O)[C@H](CC(C)C)NC(=O)[C@H](CCN)NC(=O)[C@@H](CC(C)C)NC(=O)[C@H](C)N(C)C1=O [Compound 1396] ({CH2CO}-NY(Carboxymethyl)DWV[Bip]I[NMeA][dL][Dab]LVTCA-NH2; thioether N-14)
2,0.02 µM,CC[C@H](C)[C@@H]1NC(=O)[C@H](Cc2ccc(-c3ccccc3)cc2)NC(=O)[C@H](C(C)C)NC(=O)[C@H](Cc2c[nH]c3ccccc23)NC(=O)[C@H](CC(=O)O)NC(=O)[C@H](Cc2cccc(C#N)c2)NC(=O)[C@H](CC(N)=O)NC(=O)CSC[C@@H](C(=O)N[C@@H](C)C(N)=O)NC(=O)[C@H]([C@@H](C)O)NC(=O)[C@H](C(C)C)NC(=O)[C@H](CC(C)C)NC(=O)[C@H](CCN)NC(=O)[C@@H](CC(C)C)NC(=O)[C@H](C)N(C)C1=O [Compound 1397] ({CH2CO}-N[Phe(3-CN)]DWV[Bip]I[NMeA][dL][Dab]LVTCA-NH2; thioether N-14)
3,0.14 µM,CC[C@H](C)[C@@H]1NC(=O)[C@H](Cc2ccc(-c3ccccc3)cc2)NC(=O)[C@H](C(C)C)NC(=O)[C@H](Cc2c[nH]c3ccccc23)NC(=O)[C@H](CC(=O)O)NC(=O)[C@H](Cc2ccc(O)cc2)NC(=O)[C@H](CC(N)=O)NC(=O)CSC[C@@H](C(=O)N[C@@H](C)C(N)=O)NC(=O)[C@H]([C@@H](C)O)NC(=O)[C@H](C(C)C)NC(=O)[C@H](CC(C)C)NC(=O)[C@H](CCN)NC(=O)[C@@H](CC(C)C)NC(=O)[C@@H]2CCCCN2C1=O [Compound 1399] ({CH2CO}-NYDWV[Bip]I[Pip][dL][Dab]LVTCA-NH2; thioether N-14)
4,0.02 µM,CC[C@H](C)[C@@H]1NC(=O)[C@H](Cc2ccc(-c3ccccc3)cc2)NC(=O)[C@H](C(C)C)NC(=O)[C@H](Cc2c[nH]c3ccccc23)NC(=O)[C@H](CC(=O)O)NC(=O)[C@H](Cc2ccc(O)cc2)NC(=O)[C@H](Cc2ccncc2)NC(=O)CSC[C@@H](C(=O)N[C@@H](C)C(N)=O)NC(=O)[C@H]([C@@H](C)O)NC(=O)[C@H](C(C)C)NC(=O)[C@H](CC(C)C)NC(=O)[C@H](CCN)NC(=O)[C@@H](CC(C)C)NC(=O)[C@H](C)N(C)C1=O [Compound 1400] ({CH2CO}-[4Pal]YDWV[Bip]I[NMeA][dL][Dab]LVTCA-NH2; thioether N-14)
5,0.01 µM,CC[C@H](C)[C@@H]1NC(=O)[C@H](Cc2ccc(-c3ccccc3)cc2)NC(=O)[C@H](C(C)C)NC(=O)[C@H](Cc2c[nH]c3ccccc23)NC(=O)[C@H](CC(=O)O)NC(=O)[C@H](Cc2ccc(O)cc2)NC(=O)[C@H](Cc2cccnc2)NC(=O)CSC[C@@H](C(=O)N[C@@H](C)C(N)=O)NC(=O)[C@H]([C@@H](C)O)NC(=O)[C@H](C(C)C)NC(=O)[C@H](CC(C)C)NC(=O)[C@H](CCN)NC(=O)[C@@H](CC(C)C)NC(=O)[C@H](C)N(C)C1=O [Compound 1401] ({CH2CO}-[3Pal]YDWV[Bip]I[NMeA][dL][Dab]LVTCA-NH2; thioether N-14)
6,0.02 µM,CC(C)C[C@@H]1NC(=O)[C@H](CCN)NC(=O)[C@@H](CC(C)C)NC(=O)[C@H](C)N(C)C(=O)[C@H](CCCNC(N)=O)NC(=O)[C@H](Cc2ccc(-c3ccccc3)cc2)NC(=O)[C@H](C(C)C)NC(=O)[C@H](Cc2c[nH]c3ccccc23)NC(=O)[C@H](CC(=O)O)NC(=O)[C@H](Cc2ccc(C#N)cc2)NC(=O)[C@H](Cc2ccncc2)NC(=O)CSC[C@@H](C(=O)N[C@@H](C)C(N)=O)NC(=O)[C@H]([C@@H](C)O)NC(=O)[C@H](C(C)C)NC1=O [Compound 1402] ({CH2CO}-[4Pal][Phe(4-CN)]DWV[Bip][Cit][NMeA][dL][Dab]LVTCA-NH2; thioether N-14)
